Reference: ChEMBL document CHEMBL1212754, “SmQnr contributes to intrinsic resistance to quinolones in Stenotrophomonas maltophilia” (2010)
Converted amounts (≈) assume the structure as drawn.

What was measured:
Assay type in all cases: functional
[1] = test system: Stenotrophomonas maltophilia; assay: Antibacterial activity against Stenotrophomonas maltophilia MBS109 containing chromosomally encoded Smqnr gene by epsilon test
[2] = test system: Stenotrophomonas maltophilia; assay: Antibacterial activity against Stenotrophomonas maltophilia MBS108 containing both chromosomally and plasmid encoded Smqnr gene by epsilon test
[3] = test system: Stenotrophomonas maltophilia; assay: Antibacterial activity against Stenotrophomonas maltophilia MBS101 containing plasmid encoded Smqnr gene by epsilon test
[4] = test system: Stenotrophomonas maltophilia; assay: Antibacterial activity against Stenotrophomonas maltophilia D457 containing chromosomally encoded Smqnr gene by epsilon test
[5] = test system: Stenotrophomonas maltophilia; assay: Antibacterial activity against Stenotrophomonas maltophilia MBS100 deficient in Smqnr gene by epsilon test
[6] = test system: Stenotrophomonas maltophilia; assay: Antibacterial activity against Stenotrophomonas maltophilia MBS82 deficient in Smqnr gene by epsilon test

| Compound | MIC [1] | MIC [2] | MIC [3] | MIC [4] | MIC [5] | MIC [6] |
| --- | --- | --- | --- | --- | --- | --- |
| O=C(O)c1cn(C2CC2)c2cc(N3CCNCC3)c(F)cc2c1=O [CIPROFLOXACIN] | 0.75 µg/mL (≈ 2.26 µM) | 2 µg/mL (≈ 6.04 µM) | 2 µg/mL (≈ 6.04 µM) | 0.75 µg/mL (≈ 2.26 µM) | – | – |
| C[C@H]1COc2c(N3CCN(C)CC3)c(F)cc3c(=O)c(C(=O)O)cn1c23.C[C@H]1COc2c(N3CCN(C)CC3)c(F)cc3c(=O)c(C(=O)O)cn1c23.O [LEVOFLOXACIN] | 0.5 µg/mL | 1 µg/mL | 1 µg/mL | 0.5 µg/mL | 0.25 µg/mL | 0.25 µg/mL |
| CC1COc2c(N3CCN(C)CC3)c(F)cc3c(=O)c(C(=O)O)cn1c23 (stereo not drawn) [OFLOXACIN] | 1 µg/mL (≈ 2.77 µM) | 3 µg/mL (≈ 8.3 µM) | 3 µg/mL (≈ 8.3 µM) | 1 µg/mL (≈ 2.77 µM) | 0.5 µg/mL (≈ 1.38 µM) | 0.5 µg/mL (≈ 1.38 µM) |

The next molecules have a lower MIC [1] than those just listed; values first:

| MIC [1] | MIC [2] | MIC [3] | MIC [4] | MIC [5] | MIC [6] | Compound |
| --- | --- | --- | --- | --- | --- | --- |
| 0.25 µg/mL (≈ 0.666 µM) | 0.75 µg/mL (≈ 2 µM) | 0.75 µg/mL (≈ 2 µM) | 0.25 µg/mL (≈ 0.666 µM) | 0.125 µg/mL (≈ 0.333 µM) | 0.125 µg/mL (≈ 0.333 µM) | COc1c(N2CCNC(C)C2)c(F)cc2c(=O)c(C(=O)O)cn(C3CC3)c12 (stereo not drawn) [GATIFLOXACIN] |
| 0.19 µg/mL (≈ 0.473 µM) | 0.75 µg/mL (≈ 1.87 µM) | 0.75 µg/mL (≈ 1.87 µM) | 0.19 µg/mL (≈ 0.473 µM) | 0.064 µg/mL (≈ 0.159 µM) | 0.064 µg/mL (≈ 0.159 µM) | COc1c(N2C[C@@H]3CCCN[C@@H]3C2)c(F)cc2c(=O)c(C(=O)O)cn(C3CC3)c12 [MOXIFLOXACIN] |
